Data as given in patent US12195427B2, “MASP-2 inhibitors and methods of use” (priority 2018, dated 2025).

Biological target: MASP-2 CCP2-SP (Homo sapiens (Human), UniProt O00187)
Assay: MASP-2 co-crystallization, X-ray crystallography and structure analysis (H-bonds, van der Waals contacts);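 for Ligand-pharmacophore element distance, pharmacophore element C2: distance from averaged pharmacophore element to bound ligand; missing value means element absent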;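 for Ligand-pharmacophore element distance, pharmacophore element C3: distance from averaged pharmacophore element to bound ligand; missing value means element absent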;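 for Ligand-pharmacophore element distance, pharmacophore element C4: distance from averaged pharmacophore element to bound ligand; missing value means element absent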;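 for Ligand-pharmacophore element distance, pharmacophore element C5: distance from averaged pharmacophore element to bound ligand; missing value means element absent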
Parameters: van der Waals contact distance, MASP-2 HIS 483 atom CD2 / van der Waals contact distance, MASP-2 HIS 483 atom NE2 / van der Waals contact distance, SER 654 C to compound atom / van der Waals contact distance, SER 654 O to compound atom / van der Waals contact distance, TRP 655 C to compound atom / van der Waals contact distance, MASP-2 GLY 528 atom CA / van der Waals contact distance TRP 655 atom CZ3 / van der Waals contact distance TRP 655 atom N / van der Waals contact distance TRP 655 atom CE3 / van der Waals contact distance GLY 656 atom C / van der Waals contact distance GLY 656 atom CA / van der Waals contact distance GLY 656 atom O / van der Waals contact distance, MASP-2 TYR 607 atom CD1 / van der Waals contact distance, MASP-2 PRO 606 atom O / d(C3,CA1) / d(CA1,N1)2 / d(H4,O1) / d(H4,O2) / d(O1,O2) / d(CA1,O2) / d(CA6,O1) / d(CA6,O2) / d(CA1,C5) / d(O2,H3) / d(N2,C2) / d(CA5,N2) / d(N2,C4) / d(N2,C6) / d(N2,CA3) / d(N2,O3) / d(O4,H2): unit not given beside the values
Conditions: for Ligand-pharmacophore element distance, pharmacophore element C2 / Ligand-pharmacophore element distance, pharmacophore element C3 / Ligand-pharmacophore element distance, pharmacophore element C4 / Ligand-pharmacophore element distance, pharmacophore element C5 / Ligand-pharmacophore element distance, pharmacophore element C6 / Ligand-pharmacophore element distance, pharmacophore element C7 / Ligand-pharmacophore element distance, pharmacophore element CA1 / Ligand-pharmacophore element distance, pharmacophore element CA2 / Ligand-pharmacophore element distance, pharmacophore element CA3 / Ligand-pharmacophore element distance, pharmacophore element CA4 / Ligand-pharmacophore element distance, pharmacophore element CA5 / Ligand-pharmacophore element distance, pharmacophore element CA6: Table A4-1; for Pharmacophore torsion angle a(O1, O2, N2, CA2): Table A7-2
In short: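 Human MASP-2 CCP2-SP, untagged or 6His-tagged, was expressed in E. coli and crystallized. Crystals were soaked with inhibitor in crystallization solution, flash-cooled in liquid nitrogen, and diffracted with synchrotron X-rays (wavelength 1.0). Structures were solved by molecular replacement from 1Q3X and partially refined.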

[1] = Table A5-1 pharmacophore: distance between elements, S2/S1 region
[2] = Table A5-2 pharmacophore distance, S3/S4 region
[3] = between pharmacophore elements of the bound compound
[4] = Table A7-1, between pharmacophore elements of the bound compound

Sequence of MASP-2 CCP2-SP (O00187 445-686): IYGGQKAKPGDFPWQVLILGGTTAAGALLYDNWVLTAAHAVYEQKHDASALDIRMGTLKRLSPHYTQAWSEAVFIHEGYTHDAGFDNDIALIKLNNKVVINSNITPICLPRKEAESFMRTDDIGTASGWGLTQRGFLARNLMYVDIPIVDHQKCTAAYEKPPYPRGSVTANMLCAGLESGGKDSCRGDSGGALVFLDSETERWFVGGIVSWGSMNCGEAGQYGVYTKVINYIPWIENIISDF
Sequence of MASP-2 CCP2-SP (O00187 364-432 partner): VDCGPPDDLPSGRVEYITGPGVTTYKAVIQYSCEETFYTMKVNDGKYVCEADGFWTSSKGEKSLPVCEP

SMILES | Ligand-pharmacophore element distance, pharmacophore element C2 | Ligand-pharmacophore element distance, pharmacophore element C3 | Ligand-pharmacophore element distance, pharmacophore element C4 | Ligand-pharmacophore element distance, pharmacophore element C5 | Ligand-pharmacophore element distance, pharmacophore element C6 | Ligand-pharmacophore element distance, pharmacophore element C7 | Ligand-pharmacophore element distance, pharmacophore element CA1 | Ligand-pharmacophore element distance, pharmacophore element CA2 | Ligand-pharmacophore element distance, pharmacophore element CA3 | Ligand-pharmacophore element distance, pharmacophore element CA4 | Ligand-pharmacophore element distance, pharmacophore element CA5 | Ligand-pharmacophore element distance, pharmacophore element CA6 | d(CA1,C5) [1] | d(CA1,O1) [1] | d(CA1,O2) [1] | d(CA1,O4) [1] | d(H4,O1) [1] | d(H4,O2) [1] | d(O1,O2) [1] | d(N2,CA2) [2] | other results
CC(NC(=O)C1CC(Cc2ccccc2)CN1)C(=O)NCc1cnc2c(c1)c(Cl)cn2C.Cl.Cl (mixture of isomers) [1450_A] | 0 | 0 | 0 | 0.34 | 0 | 0.72 | 1.03 | 0.4 | 0 | 0 | 0 | 0 | 3.55 | 5.47 | 4.73 | 1.75 | 3.16 | 3.57 | 3.11 | 5.88 | d(O2,H3) [2]: 2.31; d(O2,N2) [2]: 2.81; a(C5, CA1, O1) (Table A6-1 pharmacophore angle): 150.97; a(CA1, O1, O2) (Table A6-1 pharmacophore angle): 94.14; a(O1, CA1, C7) (Table A6-1 pharmacophore angle): 136.18; a(O1, CA1, O4) (Table A6-1 pharmacophore angle): 68.80; a(O1, O2, H4) (Table A6-1 pharmacophore angle): 125.38; a(O1, O2, H3) (Table A6-2 pharmacophore angle): 127.40; a(O1, O2, N2) (Table A6-2 pharmacophore angle): 139.62; a(O2, N2, CA2) (Table A6-2 pharmacophore angle): 154.51; Pharmacophore torsion angle a(O1, O2, N2, CA2) [3]: 120.74
C[C@H](NC(=O)[C@H]1C[C@@H](c2ccccc2)CCN1)C(=O)NCc1cc(Cl)ccc1O.Cl [1078_14] | 0.74 | 0 | 0 | 0.47 | 0 | 0 | 1.61 | 0.8 | 0 | 0 | 0 | 0 | 3.13 | 4.46 | 4.47 | 2.75 | 2.48 | 2.59 | 2.91 | 5.69 | d(O4,H2) [1]: 0.97; d(N2,C2) [2]: 1.45; d(O2,H3) [2]: 2.58; d(O2,N2) [2]: 2.77; a(C5, CA1, O1) (Table A6-1 pharmacophore angle): 159.36; a(CA1, O1, O2) (Table A6-1 pharmacophore angle): 109.29; a(CA1, O4, H2) (Table A6-1 pharmacophore angle): 126.58; a(O1, CA1, O4) (Table A6-1 pharmacophore angle): 70.42; a(O1, O2, H4) (Table A6-1 pharmacophore angle): 109.80; a(O1, O2, H3) (Table A6-2 pharmacophore angle): 144.55; a(O1, O2, N2) (Table A6-2 pharmacophore angle): 148.03; a(O2, N2, C2) (Table A6-2 pharmacophore angle): 129.57; a(O2, N2, CA2) (Table A6-2 pharmacophore angle): 155.65; Pharmacophore torsion angle a(C5, CA1, O1, H4) [4]: 20.44; Pharmacophore torsion angle a(H4, O1, O2, H3) [4]: −134.39; Pharmacophore torsion angle a(H4, O1, O2, N2) [4]: −121.21; Pharmacophore torsion angle a(O1, H4, O2, CA1) [4]: −62.09; Pharmacophore torsion angle a(O1, O2, N2, C2) [4]: 126.74; Pharmacophore torsion angle a(O1, O2, N2, CA2) [3]: 134.23
